Data on 1 compound can be found in patent US11596615B2, “Compositions and methods for treatment of insulin resistance” (Temple University—Of The Commonwealth System Of Higher …, priority 2016, dated 2023).

A short description of data set [1]: Adduct formation with 4-HNE by mass spectroscopy. The note with it: equimolar 10 μM APL and 4-HNE, 1 hr incubation at 37° C.; FIG. 6A, 6B; dihydrochloride. How it is done: The experimental design was to incubate equimolar amounts (10 μM) of APL (dihydrochloride) with 4-HNE and measure adduct formation by mass spectroscopy before and after 1 hr incubation at 37° C.

The subject of a further data set is db/db mice. The data set can be described thus: Glucose tolerance test in leptin receptor knock-out (db/db) mice. The format is in vivo. Here is the method: Leptin receptor knock-out (db/db) mice have severe, rapid, spontaneous and early-onset obesity and insulin resistance that is first recognizable at 4 weeks of age. These animals (5 for each group) were used to determine the effect of (S)-2-amino-6-((3-aminopropyl)amino)hexanoic acid dihydrochloride on impaired glucose tolerance at pre-diabetes level. The groups consisted of (i) db/db mice administered 50 mg/kg b.i.d. p.o. (S)-2-amino-6-((3-aminopropyl)amino)hexanoic acid dihydrochloride; (ii) db/db vehicle control-treated mice; and (iii) heterozygous littermate control mice. The treatment period was for 7 days. Glucose tolerance tests were performed as described above.
To determine the effect of (S)-2-amino-6-((3-aminopropyl)amino)hexanoic acid dihydrochloride on impaired glucose tolerance after diabetes is established, 6 week old db/db mice were treated with the drug (50 mg/kg b.i.d. p.o.) for 14 days. The positive control group was treated with metformin at the same dose. […] The results establish that the drug can be used to treat both pre-diabetes, and diabetes wherein the diabetic phenotype has been established.
To assess whether (S)-2-amino-6-((3-aminopropyl)amino)hexanoic acid dihydrochloride delays progression to diabetes or only masks diabetes during treatment period, (i) db/db mice (ii) db/db vehicle control-treated mice; and (iii) heterozygous littermate control mice were treated with and without (S)-2-amino-6-((3-aminopropyl)amino)hexanoic acid dihydrochloride or metformin (50 mg/kg b.i.d. p.o.) for 14 days. The 14 day treatment period was followed by another 14 day period (“wash out period”) in which no treatment was given.

A further data set relates to GLUT4. The data set can be described thus: GLUT4 carbonylation in adipose tissue of HFD mice by MRM. The format is in vivo, C57BL/6J mice. The note with it: about 10 mg/kg per day in water, two weeks, n=8, P<0.02, FIG. 8A. An excerpt: MRM-MS is a quantitative mass spectrometry-based target technology that generates unique fragment ions associated with their corresponding precursor ions. These ions can be detected and quantified in complex matrix samples. The quantitation of peptides is obtained measuring the intensity of the fragment ions. To detect carbonylated GLUT4, specific peptides were selected. The parent ion for the carbonylated GLUT4 sequence LTGWADVSGVLAELKDEK-4HNE (SEQ ID NO:2) with triple charge mass is 696.381 m/z. After fragmentation of the parent ion, relative daughter ions: 1101.94, 788.4758, 917.5138, 988.5555, 722.4186, and 481.9482 m/z were identified and used for the quantification of the carbonylated Glut 4 peptide. […] This internal standard peptide allows a relative quantification because it is used for normalization of the intensity of each GLUT4 peptide within the same sample.
MRM analyses were performed with a DIONEX UltiMate™ 3000 SRLCnano HPLC system (Thermo Scientific) coupled to a TSQ QUANTUM™ ULTRA (Thermo Scientific) triple quadrupole. PINPOINT™ software was used for method development and the optimization of the mass spectrometer parameters, as well as for peptide quantification. […]
Thirty-two C57BL/6J mice 8-weeks old were selected and randomly separated. […] Glucose levels were measured at 20, 40, 80 and 140 minutes after glucose administration in a glucose time test (GTT). […]

For data set [2], the system named is mice fed high fat diet (HFD). The data set can be described thus: Fasting glucose and glucose tolerance test in HFD mice (Example 11). The format is in vivo, C57BL/6J mice. The note with it: two weeks. How it is done:
Thirty-two C57BL/6J mice 8-weeks old were selected and randomly separated. The mice (n=8) were fed ad libitum for two weeks with either CHOW diet or high fat diet (HFD, 60% of fat content). Each group was divided in half 8 animals received regular water and the other 8 received (S)-2-amino-6-((3-aminopropyl)amino)hexanoic acid dihydrochloride dissolved in water so as to administer about 10 mg/kg of the drug body weight per mouse, per day. As an additional experimental control (n=8), a group of mice receiving HFD also received pioglitazone (10 mg/kg). Poglitazone is a well-known anti-diabetic agent. It has the ability to increase glucose uptake into the cells. […] At the end of the two weeks, animals were fasted for 5 hours, weighed, and their tails were clipped to measure fasting blood glucose levels. Immediately after, glucose was administered intraperitoneally (1 mg/g of body weight). Glucose levels were measured at 20, 40, 80 and 140 minutes after glucose administration in a glucose time test (GTT). Animals were euthanized under anesthesia (isoflurane). Blood, liver, fat and muscle tissues were collected and flash frozen for the studies. […]

Data set [3] is described as follows: Body weight of diet-induced (HFD) obese mice over two weeks. The format is in vivo. The note with it: 10 mg/kg/day. Here is the method: The body weights of diet-induced (HFD) mice with and without (S)-2-amino-6-((3-aminopropyl)amino)hexanoic acid dihydrochloride (10 mg/kg/day) were measured over 14 days.
In contrast, poglitazone is known to cause water retention and weight gain.

“Also recorded” adds a separate entry of the source. Structures can show the parent of a compound that is named as a salt.

`NCCCNCCCC[C@H](N)C(=O)O` [APL, (S)-2-amino-6-((3-aminopropyl)amino)hexanoic acid dihydrochloride]: the “adduct formation with 4-HNE” value in data set [1] is on record as “forms an adduct with 4-HNE after 1 hr of incubation; also recorded: forms an adduct with 4-NHE”. The “impaired glucose tolerance after diabetes is established” value in the data set with db/db mice (6 week old db/db mice, 50 mg/kg b.i.d. p.o., 14 days, vs metformin at the same dose, FIG. 11) is “better in reducing impaired glucose tolerance than metformin”. For the same compound, the “impaired glucose tolerance after wash out period” value with db/db mice (db/db mice, 50 mg/kg b.i.d. p.o. 14 days, then 14 days no treatment, FIG. 12) was “still effective in reducing impaired glucose tolerance even after 14 days following treatment removal”. In addition, the “impaired glucose tolerance, pre-diabetic stage” value in the data set with db/db mice (pre-diabetic db/db mice, 50 mg/kg b.i.d. p.o., 7 days, FIG. 10) is recorded as “normalizes impaired glucose tolerance”. Also, the “reduction of GLUT4 carbonylations in adipose tissue” value with GLUT4 is “about 50%”. Besides, the glucose tolerance test entry in data set [2] (10 mg/kg, glucose 1 mg/g i.p., FIG. 8C) is listed as “drastically improved”. Further, in data set [2] (about 10 mg/kg per day, 5 hours fasted, FIG. 8B), the fasting glucose levels entry is on record as “reduced fasting glucose levels”. Besides, in data set [3] (HFD obese mice, two weeks, FIG. 9), the body weight result was “no effect on body weight”. In data set [3] (mouse, in vivo), the “toxicity (from body weight)” value is listed as “lack of significant toxicity”.
